Assay: molar heat capacity at constant pressure
Details: 101.33 kPa

CCC[n+]1ccn(C)c1.[Br-] [1-methyl-3-propylimidazolium bromide]
Details	molar heat capacity at constant pressure [J/K/mol]
199.31 K, Crystal, Vacuum adiabatic calorimetry	164.75
199.46 K, Glass, Small (less than 1 g) adiabatic calorimetry	175.22
200.05 K, Glass, Small (less than 1 g) adiabatic calorimetry	176.21
200.67 K, Crystal, Vacuum adiabatic calorimetry	166
200.97 K, Metastable crystal, Small (less than 1 g) adiabatic calorimetry	168.83
201.03 K, Crystal, Vacuum adiabatic calorimetry	166.26
201.36 K, Crystal, Vacuum adiabatic calorimetry	166.53
202.03 K, Crystal, Vacuum adiabatic calorimetry	167.06
202.22 K, Glass, Small (less than 1 g) adiabatic calorimetry	178.79
202.47 K, Glass, Small (less than 1 g) adiabatic calorimetry	180.24
203.09 K, Crystal, Vacuum adiabatic calorimetry	167.78
203.39 K, Crystal, Vacuum adiabatic calorimetry	168.1
203.43 K, Crystal, Vacuum adiabatic calorimetry	167.91
203.43 K, Metastable crystal, Small (less than 1 g) adiabatic calorimetry	170.24
204.75 K, Crystal, Vacuum adiabatic calorimetry	169.11
204.84 K, Glass, Small (less than 1 g) adiabatic calorimetry	187.91
204.96 K, Glass, Small (less than 1 g) adiabatic calorimetry	184.36
205.16 K, Crystal, Vacuum adiabatic calorimetry	169.18
205.49 K, Crystal, Vacuum adiabatic calorimetry	169.21
205.88 K, Metastable crystal, Small (less than 1 g) adiabatic calorimetry	171.68
206.12 K, Crystal, Vacuum adiabatic calorimetry	170
207.12 K, Glass, Small (less than 1 g) adiabatic calorimetry	199.89
207.47 K, Crystal, Vacuum adiabatic calorimetry	170.79
207.56 K, Crystal, Vacuum adiabatic calorimetry	170.75
207.61 K, Glass, Small (less than 1 g) adiabatic calorimetry	196
208.34 K, Metastable crystal, Small (less than 1 g) adiabatic calorimetry	173.15
208.84 K, Crystal, Vacuum adiabatic calorimetry	171.68
209.31 K, Glass, Small (less than 1 g) adiabatic calorimetry	214.39
209.63 K, Crystal, Vacuum adiabatic calorimetry	172.23
210.02 K, Glass, Small (less than 1 g) adiabatic calorimetry	225.97
210.2 K, Crystal, Vacuum adiabatic calorimetry	172.56
210.79 K, Metastable crystal, Small (less than 1 g) adiabatic calorimetry	174.52
211.34 K, Glass, Small (less than 1 g) adiabatic calorimetry	239.57
211.57 K, Crystal, Vacuum adiabatic calorimetry	173.4
211.7 K, Crystal, Vacuum adiabatic calorimetry	173.55
212.2 K, Liquid, Small (less than 1 g) adiabatic calorimetry	259.73
212.93 K, Crystal, Vacuum adiabatic calorimetry	174.3
213.23 K, Metastable crystal, Small (less than 1 g) adiabatic calorimetry	176.24
213.27 K, Glass, Small (less than 1 g) adiabatic calorimetry	257.87
213.77 K, Crystal, Vacuum adiabatic calorimetry	174.86
214.3 K, Crystal, Vacuum adiabatic calorimetry	175.3
214.46 K, Liquid, Small (less than 1 g) adiabatic calorimetry	259.1
215.25 K, Liquid, Small (less than 1 g) adiabatic calorimetry	259.12
215.66 K, Crystal, Vacuum adiabatic calorimetry	176.2
215.67 K, Metastable crystal, Small (less than 1 g) adiabatic calorimetry	177.87
215.84 K, Crystal, Vacuum adiabatic calorimetry	176.33
216.73 K, Liquid, Small (less than 1 g) adiabatic calorimetry	260.04
217.03 K, Crystal, Vacuum adiabatic calorimetry	177.11
217.09 K, Liquid, Small (less than 1 g) adiabatic calorimetry	259.63
217.24 K, Liquid, Small (less than 1 g) adiabatic calorimetry	260
217.9 K, Liquid, Small (less than 1 g) adiabatic calorimetry	259.51
217.92 K, Crystal, Vacuum adiabatic calorimetry	177.82
218.11 K, Metastable crystal, Small (less than 1 g) adiabatic calorimetry	179.69
218.4 K, Crystal, Vacuum adiabatic calorimetry	178.04
219.01 K, Liquid, Small (less than 1 g) adiabatic calorimetry	260.43
219.18 K, Liquid, Small (less than 1 g) adiabatic calorimetry	259.88
219.24 K, Liquid, Small (less than 1 g) adiabatic calorimetry	260.35
219.77 K, Crystal, Vacuum adiabatic calorimetry	179.06
219.98 K, Liquid, Small (less than 1 g) adiabatic calorimetry	259.88
219.99 K, Crystal, Vacuum adiabatic calorimetry	179.17
220.54 K, Metastable crystal, Small (less than 1 g) adiabatic calorimetry	181.19
221.14 K, Crystal, Vacuum adiabatic calorimetry	179.92
221.23 K, Liquid, Small (less than 1 g) adiabatic calorimetry	260.68
221.29 K, Liquid, Small (less than 1 g) adiabatic calorimetry	260.8
222.07 K, Crystal, Vacuum adiabatic calorimetry	180.63
222.07 K, Liquid, Small (less than 1 g) adiabatic calorimetry	260.23
222.51 K, Crystal, Vacuum adiabatic calorimetry	180.9
222.97 K, Metastable crystal, Small (less than 1 g) adiabatic calorimetry	182.89
223.23 K, Liquid, Small (less than 1 g) adiabatic calorimetry	261
223.57 K, Liquid, Small (less than 1 g) adiabatic calorimetry	261.15
223.88 K, Crystal, Vacuum adiabatic calorimetry	181.95
224.15 K, Crystal, Vacuum adiabatic calorimetry	182.18
224.16 K, Liquid, Small (less than 1 g) adiabatic calorimetry	260.59
225.24 K, Liquid, Small (less than 1 g) adiabatic calorimetry	261.29
225.25 K, Crystal, Vacuum adiabatic calorimetry	182.95
225.39 K, Metastable crystal, Small (less than 1 g) adiabatic calorimetry	184.41
225.86 K, Liquid, Small (less than 1 g) adiabatic calorimetry	261.58
226.23 K, Crystal, Vacuum adiabatic calorimetry	183.69
226.24 K, Liquid, Small (less than 1 g) adiabatic calorimetry	260.96
226.63 K, Crystal, Vacuum adiabatic calorimetry	183.97
227.24 K, Liquid, Small (less than 1 g) adiabatic calorimetry	261.74
227.8 K, Metastable crystal, Small (less than 1 g) adiabatic calorimetry	186.11
228 K, Crystal, Vacuum adiabatic calorimetry	184.96
228.15 K, Liquid, Small (less than 1 g) adiabatic calorimetry	262.01
228.31 K, Crystal, Vacuum adiabatic calorimetry	185.39
228.33 K, Liquid, Small (less than 1 g) adiabatic calorimetry	261.35
229.25 K, Liquid, Small (less than 1 g) adiabatic calorimetry	262.21
229.38 K, Crystal, Vacuum adiabatic calorimetry	186.04
230.21 K, Metastable crystal, Small (less than 1 g) adiabatic calorimetry	187.89
230.39 K, Crystal, Vacuum adiabatic calorimetry	186.96
230.42 K, Liquid, Small (less than 1 g) adiabatic calorimetry	261.8
230.44 K, Liquid, Small (less than 1 g) adiabatic calorimetry	262.44
230.75 K, Crystal, Vacuum adiabatic calorimetry	187.19
231.26 K, Liquid, Small (less than 1 g) adiabatic calorimetry	262.65
232.13 K, Crystal, Vacuum adiabatic calorimetry	188.21
232.47 K, Crystal, Vacuum adiabatic calorimetry	188.55
232.51 K, Liquid, Small (less than 1 g) adiabatic calorimetry	262.24
232.62 K, Metastable crystal, Small (less than 1 g) adiabatic calorimetry	189.5
232.74 K, Liquid, Small (less than 1 g) adiabatic calorimetry	263.08
233.01 K, Crystal, Vacuum adiabatic calorimetry	189.36
233.27 K, Liquid, Small (less than 1 g) adiabatic calorimetry	263.01
233.5 K, Crystal, Vacuum adiabatic calorimetry	189.25
234.55 K, Crystal, Vacuum adiabatic calorimetry	190.14
234.61 K, Liquid, Small (less than 1 g) adiabatic calorimetry	262.58
234.88 K, Crystal, Vacuum adiabatic calorimetry	190.37
235.03 K, Liquid, Small (less than 1 g) adiabatic calorimetry	263.49
235.28 K, Liquid, Small (less than 1 g) adiabatic calorimetry	263.42
235.72 K, Metastable crystal, Small (less than 1 g) adiabatic calorimetry	191.63
236.26 K, Crystal, Vacuum adiabatic calorimetry	191.4
236.63 K, Crystal, Vacuum adiabatic calorimetry	191.86
236.7 K, Liquid, Small (less than 1 g) adiabatic calorimetry	263.12
237.29 K, Liquid, Small (less than 1 g) adiabatic calorimetry	263.79
237.33 K, Liquid, Small (less than 1 g) adiabatic calorimetry	263.86
237.63 K, Crystal, Vacuum adiabatic calorimetry	192.56
238.14 K, Metastable crystal, Small (less than 1 g) adiabatic calorimetry	193.62
238.71 K, Crystal, Vacuum adiabatic calorimetry	193.49
238.79 K, Liquid, Small (less than 1 g) adiabatic calorimetry	264.33
239.01 K, Crystal, Vacuum adiabatic calorimetry	193.7
239.3 K, Liquid, Small (less than 1 g) adiabatic calorimetry	264.2
239.63 K, Liquid, Small (less than 1 g) adiabatic calorimetry	264.39
240.21 K, Liquid, Small (less than 1 g) adiabatic calorimetry	263.92
240.38 K, Crystal, Vacuum adiabatic calorimetry	194.84
240.53 K, Metastable crystal, Small (less than 1 g) adiabatic calorimetry	195.14
240.78 K, Crystal, Vacuum adiabatic calorimetry	195.37
240.89 K, Liquid, Small (less than 1 g) adiabatic calorimetry	264.51
241.32 K, Liquid, Small (less than 1 g) adiabatic calorimetry	264.76
241.76 K, Crystal, Vacuum adiabatic calorimetry	196.04
241.93 K, Liquid, Small (less than 1 g) adiabatic calorimetry	265.02
242.32 K, Liquid, Small (less than 1 g) adiabatic calorimetry	264.51
242.39 K, Crystal, Vacuum adiabatic calorimetry	197.23
242.86 K, Crystal, Vacuum adiabatic calorimetry	197.07
242.91 K, Metastable crystal, Small (less than 1 g) adiabatic calorimetry	197.2
243.14 K, Crystal, Vacuum adiabatic calorimetry	197.19
243.34 K, Liquid, Small (less than 1 g) adiabatic calorimetry	265.19
244.23 K, Liquid, Small (less than 1 g) adiabatic calorimetry	265.58
